What was measured:
Type in all cases: cell-based, Human Cytomegalovirus
HCMV AD169 virus [1] = test: HCMV AD169 CPE assay (MTS dye reduction, MRC-5 cells); conditions: Human betaherpesvirus 5, AD169, MRC5, 216 h, 9 days, read-out: EC50 (nM) Example A
Protocol: HCMV AD169 CPE Assay This assay format is a CPE (Cytopathic effect)-based assay that determines the ability of compounds to protect cells against infection with a dye reduction assay (MTS of CellTiter 96® AQueous Non-Radioactive Cell Proliferation Assay from Promega). The conversion of MTS into aqueous, soluble formazan is performed by dehydrogenase enzymes found in metabolically active cells. The quantity of formazan product determined by absorbance at 490 nm is directly proportional to the number of living cells in culture. [table] Serial dilutions of the DMSO stock compound solution are performed using DMSO in columns 2-11 and 14-23. DMSO alone is present in columns 1, 12, 13 and 24. Four μL of the DMSO serial dilutions is obtained and diluted using 96 μL of D-MEM 5% FBS culture medium to obtain 4% DMSO (7×). To perform the assay, 10 μL of the freshly prepared 4% DMSO serial dilution plate is added to the assay plate containing 40 μL of MRC-5 cells plated the day before (10000 cells per well). Twenty μL of diluted virus is added to columns 2-12 and 14-24 and only D-MEM 5% FBS medium to uninfected control (columns 1 and 13) for a final DMSO concentration of 0.6%. The virus dilution is based on the amount of virus required to obtain a Signal-to-Background of 3-4 (generally between 0.1 and 1 μL of virus stock per well or MOI=0.05). The assay plates are incubated at 37° C. with 5% CO2 for 9 days in order to obtain 100% CPE in infected control without compound (columns 12 and 24). Ten μL of freshly mixed room temperature MTS/PMS (1:20 v/v) is added and the plates are incubated at 37° C. with 5% CO2 for 4-5 h (until signal saturation at 2.3 in the 100% CPE control). The plates are sealed with TopSeal for biosafety and read on the Envision plate reader (Perkin-Elmer) or equivalent at OD 492 nm.

[2] = test system: HCMV AD169-Bac-Luc2 US2-US6 clone #26 virus; test: HCMV AD169-Bac luciferase assay (MRC-5 cells); conditions: Human betaherpesvirus 5, AD169, MRC5, 72 h, read-out: EC50 (nM) Example B
From the text: HCMV AD169-Bac Luciferase Assay
This assay format is a luciferase reporter-based assay that determines the ability of compounds to inhibit the infection by detecting a luciferase signal decrease following the addition of BIGlo substrate (preparation indicated below) directly in the culture media. Mono-oxygenation of luciferin is catalyzed by luciferase in the presence of Mg2+, ATP and molecular oxygen. The generation of oxyluciferin is a luminescent reaction that can be detected with the proper platereader. Human Cytomegalovirus AD169-Bac is obtained from Dr. Thomas Shenk at Princeton University (reference paper Yu et al. 2002—J. Virol. 76 (5):2316-2328, herein incorporated by reference) and modified by recombineering to introduce a humanized firefly luciferase gene (Luc2) at the US2-US6 position in the HCMV genome. The virus is expanded in MRC-5 cells.
Serial dilutions of the DMSO stock compound solution are performed using DMSO in columns 2-11 and 14-23. DMSO alone is present in columns 1, 12, 13 and 24. Four μL of the DMSO serial dilutions is obtained and diluted using 96 μL of D-MEM 5% FBS culture medium to obtain 4% DMSO (7×).
To perform the assay, 7 μL of the freshly prepared 4% DMSO serial dilution plate is added to the assay plate containing 25 μL of MRC-5 cells plated the day before (10000 cells per well). Seventeen μL of diluted virus is added to columns 2-12 and 14-24 and only D-MEM 5% FBS medium to uninfected control (columns 1 and 13) for a final DMSO concentration of 0.6%. The virus dilution is based on the amount of virus required to obtain the highest luciferase signal possible without CPE (generally between 0.05 and 1 μL of virus stock per well or MOI=0.02). The assay plates are incubated at 37° C. with 5% CO2 for 3 days. Fifteen μL of room temperature BIGlo buffer is added to room temperature assay plates also incubated at room temperature for 15 minutes. The plates are sealed with TopSeal for biosafety and the luminescence signal is read on the TopCount plate reader (Perkin-Elmer) or equivalent.

HCMV AD169 virus [3] = test: HCMV AD169 qPCR 96-well assay (viral DNA replication, MRC-5 cells); conditions: Human betaherpesvirus 5, AD169, MRC5, 72 h, qPCR of viral DNA, 3 days, read-out: EC50 (nM) Example C
Protocol: HCMV AD169 qPCR 96-Well Assay
The hCMV quantitative PCR (qPCR) assay evaluates the ability of a compound to inhibit, directly or indirectly, the replication of hCMV viral DNA during the first 72 h following the infection. Compounds that inhibit either entry or the hCMV polymerase are active in this assay. Compounds are tested in the qPCR assay in 96-well plates, using a 9-point dose-response with 8 compounds for each 96-well plate. The assay was adapted from the method described by Schnepf et al., Rapid determination of antiviral drug susceptibility of human cytomegalovirus by real-time PCR, Antiviral Research 81 (2009) 64-67. […]

**Q.** Which results are given for O=C(Cc1ccc(NC(=O)c2cscn2)nc1)Nc1cc(C(F)(F)F)cc(C(F)(F)F)c1 [Compound 1131]?
**A.** EC50 (HCMV AD169 virus [1]): 1520 nM; EC50 [2]: 143 nM; EC50 (HCMV AD169 virus [3]): 220 nM

**Q.** O=C(Cc1cccc(C(F)(F)F)c1)Nc1ccc2nc(NC(=O)c3cscn3)sc2c1 [Compound 1158] was tested. Which EC50 (HCMV AD169 virus [1]) did it give?
**A.** 250 nM

**Q.** What about the EC50 [2] of the same compound?
**A.** 45 nM

**Q.** And the EC50 (HCMV AD169 virus [3])?
**A.** 180 nM

**Q.** N#Cc1cccc(CC(=O)Nc2nc3ccc(NC(=O)c4cscn4)cc3s2)c1 [Compound 1098] was tested. Which EC50 [2] did it give?
**A.** 74 nM

**Q.** For O=C(Cn1ccc(NC(=O)c2cscn2)cc1=O)Nc1cccc(C(F)(F)F)c1 [Compound 1148], which EC50 [2] is on record?
**A.** 658 nM

**Q.** With CC(C(=O)Nc1nc2ccc(NC(=O)c3cscn3)cc2[nH]1)c1cccc(Cl)c1 (stereo not shown) [Compound 1037] as the compound, how does the EC50 [2] read?
**A.** 69 nM

**Q.** With CC(C(=O)Nc1nc2ccc(NC(=O)c3cscn3)cc2n1C)c1cccc(Cl)c1 (stereo not shown) [Compound 1137] as the compound, how does the EC50 (HCMV AD169 virus [1]) read?
**A.** 1700 nM

**Q.** And the EC50 [2]?
**A.** 1600 nM

**Q.** How did the EC50 (HCMV AD169 virus [1]) turn out when O=C(Cc1ccc(NC(=O)c2cscn2)cc1)Nc1cc(C(F)(F)F)cc(C(F)(F)F)c1 [Compound 1122] was run?
**A.** 142 nM

**Q.** What about the EC50 [2] of the same compound?
**A.** 110 nM

**Q.** O=C(Cc1ccc(NC(=O)c2cscn2)cn1)Nc1cc(C(F)(F)F)cc(C(F)(F)F)c1 [Compound 1143] was tested. Which EC50 (HCMV AD169 virus [1]) did it give?
**A.** 555 nM

**Q.** And the EC50 [2]?
**A.** 51 nM

**Q.** Which EC50 (HCMV AD169 virus [1]) does the source give for O=C(Cc1cccc(C(F)(F)F)c1)Nc1ccc(NC(=O)c2cscn2)nc1 [Compound 1027] here?
**A.** 2800 nM

Reference: patent publication US9334249B2, “Inhibitors of cytomegalovirus” (Boehringer Ingelheim International GmbH, priority 2012, dated 2016)
